# In patent US10077261B2, “Imidazolin-5-one derivative useful as FASN inhibitors for the treatment of cancer” (Janssen Pharmaceutica NV, priority 2012, dated 2018):
# What was measured:
# [1] = target: T1, hFASN enzyme (full length) (Homo sapiens, UniProt P49327); experiment: Fatty Acid Synthase (FASN) inhibition scintillation proximity assay; type: biochemical; conditions: for inhibition at 10 µM: read-out: Human FASN % inhibition @ 10 μM, 10 μM test compound; for IC50: read-out: Human FASN pIC50 (converted)
# T1 construct: 10 μL hFASN enzyme (full length, 300 ng, purified in house); made in house
# How it was run: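 Compounds at 0.01–30 μM were mixed with 300 ng purified full-length enzyme in 100 mM KH2PO4 pH 7.5, 1 mM DTT. Substrates ³H-acetyl-CoA and malonyl-CoA were then converted, and bead addition stopped the reaction. Signal was normalised to low and high plate controls and fitted by 4-parameter nonlinear regression.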
# [2] = test system: A2780 ovarian cells; experiment: A2780 ovarian cell proliferation assay in lipid reduced medium, without palmitate (MTT); type: cell-based; conditions: Homo sapiens, A2780, 96 h; read-out: pIC50 A2780 Ovarian Cell, Without Palmitate (converted)
# [3] = test system: A2780 ovarian cells; experiment: A2780 ovarian cell proliferation assay in lipid reduced medium, with palmitate (MTT); type: cell-based; conditions: Homo sapiens, A2780, 96 h; read-out: pIC50 A2780 Ovarian Cell, With Palmitate (converted)
# How it was run: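 Seeded cells were switched next day to lipid-reduced serum, exposed to compound and 25 μM palmitate complexed with fatty-acid-free BSA, and incubated 96 h. Proliferation was then determined by MTT absorbance at 544 nm, with a best-fit curve of signal against concentration.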
# T1 sequence (P49327 whole entry): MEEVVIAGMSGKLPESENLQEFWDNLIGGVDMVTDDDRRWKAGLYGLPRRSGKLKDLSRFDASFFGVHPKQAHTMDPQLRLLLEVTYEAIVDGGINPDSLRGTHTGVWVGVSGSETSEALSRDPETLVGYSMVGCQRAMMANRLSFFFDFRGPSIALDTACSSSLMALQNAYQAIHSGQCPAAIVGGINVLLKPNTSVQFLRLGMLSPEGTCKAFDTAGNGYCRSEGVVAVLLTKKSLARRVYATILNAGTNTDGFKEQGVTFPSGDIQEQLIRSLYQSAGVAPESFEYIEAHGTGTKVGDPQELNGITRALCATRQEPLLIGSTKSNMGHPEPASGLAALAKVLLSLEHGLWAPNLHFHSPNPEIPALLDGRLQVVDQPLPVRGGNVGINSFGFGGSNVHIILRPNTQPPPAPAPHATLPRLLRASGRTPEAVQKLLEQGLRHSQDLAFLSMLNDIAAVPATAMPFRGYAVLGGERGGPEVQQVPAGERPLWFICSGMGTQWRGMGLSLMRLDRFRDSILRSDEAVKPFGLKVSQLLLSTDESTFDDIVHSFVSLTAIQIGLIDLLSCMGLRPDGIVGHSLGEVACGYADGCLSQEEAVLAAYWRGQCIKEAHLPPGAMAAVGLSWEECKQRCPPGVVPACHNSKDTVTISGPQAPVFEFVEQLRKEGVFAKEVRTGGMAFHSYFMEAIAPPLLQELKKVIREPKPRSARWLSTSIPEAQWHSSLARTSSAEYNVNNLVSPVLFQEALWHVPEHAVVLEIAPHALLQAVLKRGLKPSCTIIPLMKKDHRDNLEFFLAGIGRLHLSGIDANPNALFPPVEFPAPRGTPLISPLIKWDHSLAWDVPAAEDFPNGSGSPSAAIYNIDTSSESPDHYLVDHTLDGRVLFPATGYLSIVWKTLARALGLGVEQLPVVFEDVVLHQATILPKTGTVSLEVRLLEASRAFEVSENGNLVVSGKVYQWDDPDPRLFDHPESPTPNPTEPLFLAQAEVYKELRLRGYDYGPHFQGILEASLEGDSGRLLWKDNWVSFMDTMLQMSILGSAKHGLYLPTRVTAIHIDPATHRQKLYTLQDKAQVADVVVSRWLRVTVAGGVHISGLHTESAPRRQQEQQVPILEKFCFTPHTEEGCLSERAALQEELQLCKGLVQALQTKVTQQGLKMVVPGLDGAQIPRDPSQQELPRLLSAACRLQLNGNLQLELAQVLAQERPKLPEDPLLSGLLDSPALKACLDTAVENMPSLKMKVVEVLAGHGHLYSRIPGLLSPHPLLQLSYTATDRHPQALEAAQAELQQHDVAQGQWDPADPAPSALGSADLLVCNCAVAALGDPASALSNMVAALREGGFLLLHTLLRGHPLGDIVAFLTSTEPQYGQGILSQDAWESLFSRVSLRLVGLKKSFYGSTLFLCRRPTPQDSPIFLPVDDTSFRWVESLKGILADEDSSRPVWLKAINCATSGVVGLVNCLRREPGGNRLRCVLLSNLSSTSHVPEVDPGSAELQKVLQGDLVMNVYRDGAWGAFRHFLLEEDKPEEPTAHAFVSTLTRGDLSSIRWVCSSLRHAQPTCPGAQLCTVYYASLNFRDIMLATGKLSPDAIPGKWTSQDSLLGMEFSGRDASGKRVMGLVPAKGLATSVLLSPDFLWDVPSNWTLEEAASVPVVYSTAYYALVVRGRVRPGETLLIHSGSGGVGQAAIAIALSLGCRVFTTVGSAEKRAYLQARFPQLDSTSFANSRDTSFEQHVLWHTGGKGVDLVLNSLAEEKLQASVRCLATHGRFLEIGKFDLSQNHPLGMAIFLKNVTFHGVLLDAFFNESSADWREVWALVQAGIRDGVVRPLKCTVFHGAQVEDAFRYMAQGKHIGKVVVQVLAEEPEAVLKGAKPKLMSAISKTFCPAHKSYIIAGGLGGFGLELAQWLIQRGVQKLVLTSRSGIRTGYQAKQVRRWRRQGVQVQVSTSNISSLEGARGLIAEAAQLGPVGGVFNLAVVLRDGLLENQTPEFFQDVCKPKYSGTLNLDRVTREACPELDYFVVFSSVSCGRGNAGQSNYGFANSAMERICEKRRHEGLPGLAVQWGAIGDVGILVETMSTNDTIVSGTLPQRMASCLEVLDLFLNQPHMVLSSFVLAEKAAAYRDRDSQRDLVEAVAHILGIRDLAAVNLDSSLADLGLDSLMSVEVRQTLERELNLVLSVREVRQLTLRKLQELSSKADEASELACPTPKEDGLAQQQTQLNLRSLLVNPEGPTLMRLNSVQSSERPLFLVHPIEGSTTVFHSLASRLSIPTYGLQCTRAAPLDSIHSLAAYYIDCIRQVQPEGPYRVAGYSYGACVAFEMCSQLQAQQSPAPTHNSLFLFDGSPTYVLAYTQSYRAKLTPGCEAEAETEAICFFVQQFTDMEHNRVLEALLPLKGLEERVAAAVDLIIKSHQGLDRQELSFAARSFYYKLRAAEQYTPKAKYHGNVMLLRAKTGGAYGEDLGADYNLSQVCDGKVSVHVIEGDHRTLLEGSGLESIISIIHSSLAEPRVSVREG
Structure (SMILES),inhibition at 10 µM [1],IC50 [1],IC50 [2],IC50 [3]
"Cc1cc2ccc(-c3ccc(C4=NC5(CC5)C(=O)N4CC4CN(C(=O)C5CC5)C4)cc3)cc2nc1Cl [compound 555, 5-[4-(2-Chloro-3-methylquinolin-7-yl)phenyl]-6-{[1-(cyclopropylcarbonyl)azetidin-3-yl]methyl}-4,6-diazaspiro[2.4]hept-4-en-7-one]",75%,1860 nM,~5130 nM,> 10000 nM
"O=C(C1CC1)N1CC(CN2C(=O)C3(CC3)N=C2c2ccc(-c3ccc4c(cnn4CCO)c3)cc2)C1 [compound 556, 6-{[1-(Cyclopropylcarbonyl)azetidin-3-yl]methyl}-5-{4-[1-(2-hydroxyethyl)-1H-indazol-5-yl]phenyl}-4,6-diazaspiro[2.4]hept-4-en-7-one]",61%,5250 nM,5890 nM,> 10000 nM
"Cc1cc(Cl)nc2cc(-c3ccc(C4=NC5(CC5)C(=O)N4CC4CN(C(=O)C5CC5)C4)cc3)ccc12 [compound 559, 5-[4-(2-Chloro-4-methylquinolin-7-yl)phenyl]-6-{[1-(cyclopropylcarbonyl)azetidin-3-yl]methyl}-4,6-diazaspiro[2.4]hept-4-en-7-one]",59%,6030 nM,9330 nM,> 10000 nM
"O=C(C1CC1)N1CC(CN2C(=O)C3(CC3)N=C2c2ccc(-c3cnc4c(F)cccc4c3)cc2)C1 [compound 560, 6-{[1-(Cyclopropylcarbonyl)azetidin-3-yl]methyl}-5-[4-(8-fluoroquinolin-3-yl)phenyl]-4,6-diazaspiro[2.4]hept-4-en-7-one]",68%,3720 nM,~7590 nM,> 10000 nM
"Cc1ccc2ccc(-c3ccc(C4=NC5(CC5)C(=O)N4CC4CN(C(=O)C5CC5)C4)cc3)c(F)c2n1 [compound 561, 6-{[1-(Cyclopropylcarbonyl)azetidin-3-yl]methyl}-5-[4-(8-fluoro-2-methylquinolin-7-yl)phenyl]-4,6-diazaspiro[2.4]hept-4-en-7-one]",56%,~7240 nM,> 10000 nM,> 10000 nM
"O=C(C1CC1)N1CC(CN2C(=O)C3(CC3)N=C2c2ccc(-c3ccc4c(Cl)ccnc4c3)cc2)C1 [compound 563, 5-[4-(4-Chloroquinolin-7-yl)phenyl]-6-{[1-(cyclopropylcarbonyl)azetidin-3-yl]methyl}-4,6-diazaspiro[2.4]hept-4-en-7-one]",88%,631 nM,3160 nM,> 10000 nM
"Cc1cc(-c2ccc3c(cnn3C)c2)ccc1C1=NC2(CC2)C(=O)N1CC1CN(C(=O)C2(N)CC2)C1 [compound 564, 6-({1-[(1-Aminocyclopropyl)carbonyl]azetidin-3-yl}methyl)-5-[2-methyl-4-(1-methyl-1H-indazol-5-yl)phenyl]-4,6-diazaspiro[2.4]hept-4-en-7-one]",97%,263 nM,525 nM,> 10000 nM
"Cn1cc(CCO)c2cc(-c3ccc(C4=NC5(CC5)C(=O)N4CC4CN(C(=O)C5CC5)C4)c(F)c3)ccc21 [compound 568, 6-{[1-(Cyclopropylcarbonyl)azetidin-3-yl]methyl}-5-{2-fluoro-4-[3-(2-hydroxyethyl)-1-methyl-1H-indol-5-yl]phenyl}-4,6-diazaspiro[2.4]hept-4-en-7-one]",89%,129 nM,46.8 nM,2400 nM
"Cc1cc2cc(-c3ccc(C4=NC5(CC5)C(=O)N4CC4CN(C(=O)C5CC5)C4)c(F)c3)ccc2n1C [compound 569, 6-{[1-(Cyclopropylcarbonyl)azetidin-3-yl]methyl}-5-[4-(1,2-dimethyl-1H-indol-5-yl)-2-fluorophenyl]-4,6-diazaspiro[2.4]hept-4-en-7-one]",86%,209 nM,204 nM,2190 nM
"Cc1cc(C)c2ccc(-c3ccc(C4=NC5(CC5)C(=O)N4CC4CN(C(=O)C5CC5)C4)cc3)cc2n1 [compound 570, 6-{[1-(Cyclopropylcarbonyl)azetidin-3-yl]methyl}-5-[4-(2,4-dimetrhylquinolin-7-yl)phenyl]-4,6-diazaspiro[2.4]hept-4-en-7-one]",65%,4170 nM,~5250 nM,> 10000 nM
"Cc1cc(-c2cccc(NC(=O)C3CC3)c2)ccc1C1=NC2(CC2)C(=O)N1CC1CN(C(=O)C2CC2)C1 [compound 571, N-[4′-(6-{[1-(Cyclopropylcarbonyl)azetidin-3-yl}methyl]-7-oxo-4,6-diazaspiro[2.4]hept-4-en-5-yl)-3′-methylbiphenyl-3-yl]cyclopropanecarboxamide]",79%,1380 nM,977 nM,> 10000 nM
"Cn1ncc2cc(-c3ccc(C4=NC5(CC5)C(=O)N4CC4CN(C(=O)C5(O)CC5)C4)c(F)c3)ccc21 [compound 572, 5-[2-Fluoro-4-(1-methyl-1H-indazol-5-yl)phenyl]-6-({1-[(1-hydroxycyclopropyl)carbonyl]azetidin-3-yl}methyl)-4,6-diazaspiro[2.4]hept-4-en-7-one]",87%,135 nM,52.5 nM,> 10000 nM
"Cc1cn(C)c2ccc(-c3ccc(C4=NC5(CC5)C(=O)N4CC4CN(C(=O)C5CC5)C4)c(F)c3)cc12 [compound 573, 6-{[1-(Cyclopropylcarbonyl)azetidin-3-yl]methyl}-5-[4-(1,3-dimethyl-1H-indol-5-yl)-2-fluorophenyl]-4,6-diazaspiro[2.4]hept-4-en-7-one]",88%,166 nM,53.7 nM,1380 nM
"Cc1ccc2ccc(-c3ccc(C4=NC5(CC5)C(=O)N4CC4CN(C(=O)C5CC5)C4)c(F)c3)cc2n1 [compound 574, 6-{[1-(Cyclopropylcarbonyl)azetidin-3-yl]methyl}-5-[2-fluoro-4-(2-methylquinolin-7-yl)phenyl]-4,6-diazaspiro[2.4]hept-4-en-7-one]",82%,813 nM,871 nM,5750 nM
"Cc1ccc2c(-c3ccc(C4=NC5(CC5)C(=O)N4CC4CN(C(=O)C5CC5)C4)c(F)c3)cccc2n1 [compound 575, 6-{[1-(Cyclopropylcarbonyl)azetidin-3-yl]methyl}-5-[2-fluoro-4-(2-methylquinolin-5-yl)phenyl]-4,6-diazaspiro[2.4]hept-4-en-7-one]",52%,8130 nM,~7940 nM,> 10000 nM
"Cn1nccc1-c1ccc(-c2ccc(C3=NC4(CC4)C(=O)N3CC3CN(C(=O)C4(O)CC4)C3)c(F)c2)cc1 [compound 577, 5-[3-Fluoro-4′-(1-methyl-1H-pyrazol-5-yl)biphenyl-4-yl]-6-({1-[(1-hydroxycyclopropyl)carbonyl]azetidin-3-yl}methyl)-4,6-diazaspiro[2.4]hept-4-en-7-one]",67%,2340 nM,2450 nM,> 10000 nM
"O=C(O)c1ccc2ccc(-c3ccc(C4=NC5(CC5)C(=O)N4CC4CN(C(=O)C5CC5)C4)cc3)cc2n1 [compound 583, 7-[4-(6-{[1-(Cyclopropylcarbonyl)azetidin-3-yl]methyl}-7-oxo-4,6-diazaspiro[2.4]hept-4-en-5-yl)phenyl]quinoline-2-carboxylic acid]",74%,3980 nM,2570 nM,> 10000 nM
